Molecular target: T1, Androgen receptor (Rattus norvegicus, UniProt P15207)
T1 sequence (P15207 whole entry): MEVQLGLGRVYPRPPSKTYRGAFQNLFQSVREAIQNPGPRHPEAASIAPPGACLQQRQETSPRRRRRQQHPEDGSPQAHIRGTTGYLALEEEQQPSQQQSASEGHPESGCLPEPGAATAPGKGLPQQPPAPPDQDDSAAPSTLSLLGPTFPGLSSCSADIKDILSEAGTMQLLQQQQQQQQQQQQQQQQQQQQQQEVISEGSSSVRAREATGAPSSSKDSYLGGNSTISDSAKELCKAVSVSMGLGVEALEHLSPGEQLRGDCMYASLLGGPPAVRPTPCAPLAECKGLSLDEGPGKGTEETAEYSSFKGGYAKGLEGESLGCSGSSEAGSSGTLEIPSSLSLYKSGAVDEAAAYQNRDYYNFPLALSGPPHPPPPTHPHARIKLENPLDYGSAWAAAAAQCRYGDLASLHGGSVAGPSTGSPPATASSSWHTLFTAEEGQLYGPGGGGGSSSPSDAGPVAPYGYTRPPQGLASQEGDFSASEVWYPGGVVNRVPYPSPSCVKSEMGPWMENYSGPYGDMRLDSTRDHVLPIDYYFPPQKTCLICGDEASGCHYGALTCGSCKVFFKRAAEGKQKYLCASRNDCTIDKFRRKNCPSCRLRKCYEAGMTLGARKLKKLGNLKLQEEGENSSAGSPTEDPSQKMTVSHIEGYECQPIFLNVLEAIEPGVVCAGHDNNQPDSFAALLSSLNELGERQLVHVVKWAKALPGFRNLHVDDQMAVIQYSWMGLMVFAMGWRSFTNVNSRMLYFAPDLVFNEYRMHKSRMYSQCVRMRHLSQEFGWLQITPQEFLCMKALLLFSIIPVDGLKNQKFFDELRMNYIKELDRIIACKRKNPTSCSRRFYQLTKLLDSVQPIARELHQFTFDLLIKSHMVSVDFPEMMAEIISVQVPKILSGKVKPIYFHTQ
Assay: The assay was performed as specified by the manufacturer (Invitrogen, Madison, Wis.). Briefly, 1 ul of 10 mM compound was added to 500 ul of AR screening buffer in a 1.5 ml eppendorf tube to make a 2x10E-5M stock. 10-fold serial dilutions of the test compounds were prepared ranging in concentration from 10E-5M to 10E-12M. Each dilution was added in triplicate to a black 384-microtiter plate. The test compounds will be diluted 2-fold in the final reaction. 2x AR-Fluormone complex was prepared with 2 nM Flourmone AL Green and 30 nM AR. 25 ul of 2x complex was aliquoted to each reaction well, such that the final reaction volume was 50 ul per well.

| SMILES | IC50 [µM] |
| --- | --- |
| Cc1c(N2C(=O)OC[C@@H]2[C@@H](O)C(F)(F)F)ccc(C#N)c1C(F)(F)F | > 1 |
| C[C@@H]1OC(=O)N(c2ccc(C#N)c(C(F)(F)F)c2)[C@H]1[C@@H](O)C(F)(F)F | 0.072 |
| C[C@@H]1OC(=O)N(c2ccc(C#N)c(C(F)(F)F)c2)[C@H]1[C@H](O)C(F)(F)F | 0.004 |

From ChEMBL document CHEMBL3886248, “Selective androgen receptor modulators” (2015)
